Like-named read-outs stand apart in the source and are kept apart here.
What was measured:
EB–DNA adduct (ct-DNA) = test: EB–DNA displacement method (fluorescence quenching); assay type: binding, calf; conditions: for Stern–Volmer quenching constant Ksv / quenching rate constant kq: EB–DNA adduct; for quenching rate constant kq: τ0 = 23 × 10^−9 s; for Δ I/I0, EB–DNA fluorescence quenching: maximum quenching of EB–DNA emission
Description: Competitive-binding experiments using the ethidium bromide (EB) displacement method from DNA may provide another confirmation of the binding affinity of the complexes. EB is a well-known DNA intercalator able to form an EB–DNA adduct by its insertion between adjacent DNA base pairs. The EB–DNA adduct is distinguished by an intense fluorescence emission band at 615 nm after excitation at 540 nm. Introducing a compound with DNA affinity leads to emission intensity decrease of the EB–DNA adduct as a result of the competition between the measured compound and EB for the binding sites within DNA.
Competitive-binding experiments to determine the displacement of the intercalator ethidium bromide (EB) from the EB–DNA adduct were conducted by fluorescence spectroscopy. To prepare the EB–DNA adduct, 20 μM EB and 54 μM ct-DNA were added to citrate buffer (sodium citrate at 15 mM and sodium chloride at 150 mM at pH = 7.0). The addition of increasing concentrations of complexes 4a–c (c = 1 mM) to a solution of the EB–DNA complex corresponded to the intercalating effect of the complexes. The concentration of the added complexes ranged from 0 to 0.2 mM. Fluorescence emission spectra were recorded in the range of 550–800 nm with an excitation wavelength of 515 nm. […] Quenching of the EB–DNA emission band by the compounds 4a–c was calculated using the Stern–Volmer equation (Equations (2)–(4)).
The extent of the inner-filter effect can be roughly estimated with the following equation:(2) Icorr=Imeas×10^ε(λexc)cd/2×10^ε(λem)cd/2 where Icorr is the corrected intensity, Imeas is the measured intensity, c is the quencher concentration, d is the width of the cuvette (1 cm) and ε(λexc) and ε(λem) are the […] of the quencher at the excitation and the emission wavelength calculated from the UV–Vis spectra of the complexes.
The quenching of the EB–DNA emission band by compounds was calculated via the Stern–Volmer equation:(3) Io/I=1+kqτ0Q=1+KSVQ where Io = the initial fluorescence intensity of the EB–DNA adduct, and I is the fluorescence intensity of the EB–DNA adduct after the addition of the quencher (studied complexes), kq = the quenching rate constant, KSV = the Stern–Volmer constant, τo = the average fluorescence lifetime of the EB–DNA adduct (23 × 10^−9 s), [Q] = the quencher concentration, respectively, KSV (in M^−1) can be obtained by the slope of the Stern–Volmer plot and kq (in M^−1 s^−1) can be calculated from Equation (4):(4) KSV=kqτ0

A549 cells = test: MTT cytotoxicity assay, A549; assay type: cell-based, human; conditions: 72 h
Method: (§1) The cytotoxicity study of the prepared copper(II) complexes was performed using the MTT assay on human cell lines—A549 (adenocarcinoma human alveolar basal epithelial cell line), HepG2 (human liver cancer cell line) and HEL (human lung fibroblast cell line, normal cells).
(§2) The cytotoxicity of the prepared copper(II) complexes in human cell lines was evaluated using the 3-(4,5-dimethylthiazol-2-yl)-2,5-diphenyltetrazolium bromide (MTT) assay following the protocol by Mosmann. Briefly, A549 (human lung epithelial cells, carcinoma), HepG2 (human liver epithelial cells, carcinoma) and HEL (human lung fibroblast cells, normal) cells were seeded in plastic 96-well plates at a density of 1.5–2 × 10^4 cells per well. […] After the treatment, the samples were washed with phosphate-buffered saline (PBS), followed by 4 h of incubation with 1 mg/mL of MTT. Subsequently, the MTT solution was removed, and the formed formazane solids were dissolved in dimethyl sulfoxide for 30 min. The photometric evaluation (at 540 nm and 690 nm) was carried out using an xMark™ Microplate Absorbance Spectrophotometer (Bio-Rad, Hercules, CA, USA) [88].
(§3) A549 (ATCC® CCL-185), HepG2 (ATCC® HB-8065) and HEL299 (ATCC® CCL-137) cells were obtained from Lambda Life (Bratislava, Slovakia). A549 cells were kept in Dulbecco’s Modified Eagle’s Medium (DMEM) supplemented with 10% fetal bovine serum (FBS) and 1% antibiotics (penicillin and streptomycin). HepG2 cells were kept in Williams medium supplemented with 10% fetal bovine serum (FBS) and 1% antibiotics (penicillin and streptomycin). HEL299 cells were kept in Minimum Essential Medium (MEM) supplemented with 10% fetal bovine serum (FBS), 1% antibiotics (penicillin and streptomycin) and 1% non-essential amino acids (NEAA). The cells were cultured in a humidified atmosphere of 5% CO2 at 37 °C. Once the cells reached approximately 80% confluence, they were harvested and subcultured after trypsin treatment.

[1] = tested on: HEL cells (human lung fibroblast, normal); test: MTT cytotoxicity assay, HEL; assay type: cell-based; conditions: 72 h
Method: as §1, §2, §3

[2] = SOD mimetic activity / radical scavenging assay (INT method); assay type: biochemical; conditions: for Activity at c1 (%), inhibition of radical transfer to INT: c1 = 0.572 mM
Method: The radical scavenging ability with respect to the SOD mimetic activity of the prepared complexes was determined by the INT method. This method is based on a competitive reaction with the superoxide anion radical from KO2 between the measured compound (complex) and 2-(4-Iodophenyl)-3-(4-nitrophenyl)-5-phenyl-2H-tetrazolium chloride (INT). INT reacts with the single electron of O2^− and produces blue-green formazane detected as light absorption at 500 nm. Complexes with good antiradical activity also react with O2^−, and as a result of this, less formazane is formed.
The first type of antiradical activity measurements involved the determination of inhibition percent values of electron transfer on INT at specific concentrations (Table 9). Two concentrations were selected to achieve good solubility of the complexes (4 and 1 mM for 4a and 4c, 2 and 1 mM for 4b). The complex 4b dissolved readily at a concentration of 4 mM, but the mixture was very dark, making measurements at 500 nm difficult. Therefore, a less concentrated initial solution was used (2 mM) as the higher concentration. In total, 0.5 mL of the initial solutions was used to prepare sample solutions that also contained INT and KO2 solutions and DMSO with an overall volume of 3.5 mL. The resulting concentrations were c1 = 0.572 mM, c1* = 0.286 mM and c2 = 0.143 mM, respectively. Complexes 4a and 4c once again provided high percentages at c1 (approximately 96–99%) but the activity dropped below 24% at c2, while complex 4b maintained mediocre activity at both concentrations. It seems that the concentration increase had only a small effect on the activity of 4b; something similar was also observed in the DNA cleavage study for complex 4b. The complexes were compared with the model compound cystamine, which was used as a standard for superoxide antiradical scavenging due to the presence of a free […] group, which is also present in glutathione.
To improve the comparability of SOD mimetic activity, IC50 concentrations were determined by performing a series of measurements with decreasing concentration. IC50 values were calculated from the trend function equation as the concentration with 50% inhibition of electron transfer on INT (Table 10).
The method is based on the agent 2-(4-Iodophenyl)-3-(4-nitrophenyl)-5-phenyl-2H-tetrazolium chloride (INT), able to scavenge a superoxide radical anion from KO2. The reaction produces a blue-green formazane, which is detected as light absorption at 500 nm. The radical scavengers (measured complexes) compete with INT for radicals and reduce the formation of formazane and light absorption at 500 nm. Antiradical activity was measured on a Synergy HT BioTek spectrophotometer. DMSO was used as the solvent for the complex and KO2 (saturated solution). The INT initial solution (4 M) was prepared in a sodium tetraborate buffer solution with pH adjusted to 7.1 with HCl.
For each measurement, an initial solution of the sample (0.5 mL) of a specific concentration (4–0.1 mM) was prepared in DMSO. Due to the addition of INT (0.5 mL) and KO2 (0.5 mL) solutions and additional DMSO (2 mL), the concentrations of the measured complexes decreased seven times (3.5 mL of total mixture). Each result was the average value of three parallel measurements expressed with a standard deviation (more information in the Supplementary Materials). For the determination of SOD-IC50, several measurements with decreasing sample concentration were performed. […] A linear trend function of the percentage of inhibition and negative logarithm of concentration was used to calculate the SOD-IC50 value as the concentration with 50% inhibition of INT–formazane formation. […]
Green: 5c 5 mM (S. cerevisiae 1x10^9 cells /ml + 0.5 ml 0.9% NaCl + 0.5 ml 5c + 0.1 ml Resazurin OX) measured in time
S6. SOD Mimetic A ctivity A ssay
For each measurement, an initial solution of the sample of a specific concentration was prepared […]

[3] = 50% inhibition of electron transfer on INT, read-out: SOD-IC50

SMILES	Stern–Volmer quenching constant Ksv (EB–DNA adduct (ct-DNA))	quenching rate constant kq (EB–DNA adduct (ct-DNA))	Δ I/I0, EB–DNA fluorescence quenching (EB–DNA adduct (ct-DNA)) [%]	IC50 (A549 cells) [µM]	IC50 [1] [µM]	IC50 [2, 3] [µM]	Activity at c1 (%), inhibition of radical transfer to INT [2] [%]	IC50 ([2]; INT method, read-out: concentration of 50% inhibition (SOD-IC50), given as range) [µM]	Activity at c1* (%), inhibition of radical transfer to INT ([2]; c1* = 0.286 mM (reduced for complex 4b))	Activity at c2 (%), inhibition of radical transfer to INT ([2]; c2 = 0.143 mM) [%]
COc1ccccc1CN=Cc1ccccc1[O-].COc1ccccc1CN=Cc1ccccc1[O-].[Cl-].[Cl-].[Cu+2].[Cu+2] [Complex 4a, [Cu2 (Sal-2-MeOBn)2 Cl2]]	4.58 (±0.10) M^−1 × 10^3	1.98 (±0.05) M^−1 s^−1 × 10^11	45.7	66.4 ± 6.2	65.9 ± 6.9	242 ± 1	95.8 ± 2.2			
COc1cccc(CN=Cc2ccccc2[O][Cu][O]c2ccccc2C=NCc2cccc(OC)c2)c1 [Complex 4b, [Cu (Sal-3-MeOBn)2]]	3.61 (±0.09) M^−1 × 10^3	1.56 (±0.04) M^−1 s^−1 × 10^11	40.1	127 ± 8.1	44.3 ± 3.6	1090 ± 56		> 1000	40.1 ± 1.9 * %	35.8 ± 1.3
COc1ccc(CN=Cc2ccccc2[O-])cc1.COc1ccc(CN=Cc2ccccc2[O-])cc1.[Cl-].[Cl-].[Cu+2].[Cu+2] [Complex 4c, [Cu2 (Sal-4-MeOBn)2 Cl2]]	3.82 (±0.12) M^−1 × 10^3	1.66 (±0.05) M^−1 s^−1 × 10^11	40.7	72 ± 6.5	62.9 ± 6.2	189 ± 11	98.9 ± 0.5			
